Tests used:
Test in all cases: biochemical
[1] = target: T1, Recombinant human MMP-2 (Homo sapiens, UniProt P08253); conditions: fluorogenic MCA-peptide substrate, pH 7.5, room temperature; read-out: MMP-2 IC50
T1 construct: made in house
T1 sequence (P08253 110-660): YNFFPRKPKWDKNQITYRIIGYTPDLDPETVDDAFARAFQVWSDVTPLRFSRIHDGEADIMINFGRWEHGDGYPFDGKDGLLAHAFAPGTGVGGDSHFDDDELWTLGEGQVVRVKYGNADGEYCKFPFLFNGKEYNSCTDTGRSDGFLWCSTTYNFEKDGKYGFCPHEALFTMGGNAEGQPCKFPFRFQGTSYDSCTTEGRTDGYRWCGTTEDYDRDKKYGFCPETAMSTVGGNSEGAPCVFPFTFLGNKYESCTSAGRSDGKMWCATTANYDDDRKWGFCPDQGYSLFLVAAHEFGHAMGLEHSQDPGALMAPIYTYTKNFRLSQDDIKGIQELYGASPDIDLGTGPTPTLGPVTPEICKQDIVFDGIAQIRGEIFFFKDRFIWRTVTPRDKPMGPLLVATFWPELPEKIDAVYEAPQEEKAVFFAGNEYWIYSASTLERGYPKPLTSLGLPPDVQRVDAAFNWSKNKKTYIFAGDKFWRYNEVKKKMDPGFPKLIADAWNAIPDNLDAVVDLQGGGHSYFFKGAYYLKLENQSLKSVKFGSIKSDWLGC
Procedure, shortened: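 Activated (APMA or trypsin) recombinant human MMP-2, from transfected expressing cells, incubated at room temperature with 4 uM fluorogenic substrate MCA-Pro-Leu-Gly-Leu-Dpa-Ala-Arg-NH2 and hydroxamate inhibitor.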

[2] = target: T2, Recombinant human MMP-1 (Homo sapiens, UniProt P03956); conditions: fluorogenic MCA-peptide substrate, pH 7.5, room temperature
T2 construct: made in house; host or cells: transfected HT-1080 cells
T2 sequence (P03956 100-469): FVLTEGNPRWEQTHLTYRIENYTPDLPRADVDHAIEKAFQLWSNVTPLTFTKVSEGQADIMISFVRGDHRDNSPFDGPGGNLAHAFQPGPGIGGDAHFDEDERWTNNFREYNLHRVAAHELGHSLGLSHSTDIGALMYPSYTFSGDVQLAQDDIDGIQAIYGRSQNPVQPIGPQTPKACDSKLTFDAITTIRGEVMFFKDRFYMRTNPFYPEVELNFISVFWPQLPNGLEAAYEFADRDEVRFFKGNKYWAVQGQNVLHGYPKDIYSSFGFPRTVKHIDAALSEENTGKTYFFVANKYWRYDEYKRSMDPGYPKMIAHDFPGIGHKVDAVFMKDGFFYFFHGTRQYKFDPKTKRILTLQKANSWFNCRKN
Method: Recombinant human MMP-1, MMP-2, MMP-9, MMP-13, and were used in this assay. These enzymes were prepared in the Assignee's es following usual laboratory procedures. Specifics for preparing and e enzymes can be found in the scientific literature describing these See, e.g., Enzyme Nomenclature (Academic Press, San Diego, Calif., d the citations therein).
The MMP-1 was obtained from MMP-1 expressing transfected HT-1080 cells provided by Dr. Harold Welgus of Washington University in St. Louis, Mo. The MMP-1 was activated using 4-aminophenylmercuric acetate (APMA), and then purified over a hydroxamic acid column.
The enzyme substrate was a methoxycoumarin-containing polypeptide having the following sequence:
MCA-ProLeuGlyLeuDpaAlaArgNH2
Here, “MCA” is methoxycoumarin and “Dpa” is 3-(2,4-dinitrophenyl)-L-2,3-diaminopropionyl alanine.
These solutions were then compared to a control (which contained equal amount of DMSO/buffer solution, but no hydroxamate compound) using Microfluor™ White Plates (Dynatech, Chantilly, Va.). Specifically, The MMPs were activated with APMA or trypsin. […] The control likewise was incubated at room temperature in separate plates with the MMP and 4 uM of the MMP substrate. […] Inhibition was measured as a reduction in fluorescent intensity as a function of inhibitor concentration using a Perkin Elmer (Norwalk, Conn.) L550 plate reader. The IC50's were then calculated from these measurements.

[3] = target: T3, Recombinant human MMP-13 (Homo sapiens, UniProt P45452); conditions: fluorogenic MCA-peptide substrate, pH 7.5, room temperature; read-out: MMP-13 IC50
T3 construct: made in house; host or cells: baculovirus / insect cells
Procedure, shortened: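 APMA-activated MMP (proenzyme purified on heparin agarose and chelating zinc columns) incubated at room temperature with 4 uM fluorogenic MCA-ProLeuGlyLeuDpaAlaArgNH2 substrate. Inhibition read as reduced fluorescence versus inhibitor concentration relative to a DMSO control, giving IC50.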

| Structure (SMILES) | IC50 [1] | IC50 [2] | IC50 [3] |
| --- | --- | --- | --- |
| COCCN1CCC(C(=O)NO)(S(=O)(=O)c2ccc(N3CCC(C(=O)c4ccc(CC(C)C)cc4)CC3)cc2)CC1 [Example 218] | 75.7 nM | > 10000 nM | 0.2 nM |
| Cc1cc(C(=O)C2CCN(c3ccc(S(=O)(=O)C4(C(=O)NO)CCN(S(C)(=O)=O)CC4)cc3)CC2)ccc1Cl [Example 219] | 258 nM | > 10000 nM | 4.9 nM |
| CCc1ccc(C(=O)C2CCN(c3ccc(S(=O)(=O)C4(C(=O)NO)CCN(S(C)(=O)=O)CC4)cc3)CC2)cc1 [Example 220] | 290 nM | > 10000 nM | 1.7 nM |
| CCN1CCC(C(=O)NO)(S(=O)(=O)c2ccc(N3CCC(C(=O)c4ccc(Cl)c(C)c4)CC3)cc2)CC1 [Example 221] | 301 nM | > 10000 nM | 3.4 nM |
| CCc1ccc(C(=O)C2CCN(c3ccc(S(=O)(=O)C4(C(=O)NO)CCN(CC)CC4)cc3)CC2)cc1 [Example 222] | 197 nM | > 10000 nM | 1 nM |
| COCCN1CCC(C(=O)NO)(S(=O)(=O)c2ccc(N3CCC(C(=O)c4ccc(CN(C)C)s4)CC3)cc2)CC1 [Example 223] | 80.4 nM | > 10000 nM | 2.5 nM |
| COCCN1CCC(C(=O)NO)(S(=O)(=O)c2ccc(N3CCC(C(=O)c4ccc(CCCC(C)C)cc4)CC3)cc2)CC1 [Example 226] | 1020 nM | > 10000 nM | < 0.1 nM |
| COCCN1CCC(C(=O)NO)(S(=O)(=O)c2ccc(N3CCC(C(=O)c4ccc(OC5CCCC5)cc4)CC3)cc2)CC1 [Example 227] | 132 nM | > 10000 nM | 1.4 nM |
| CCC(CC)Cc1ccc(C(=O)C2CCN(c3ccc(S(=O)(=O)C4(C(=O)NO)CCN(CCOC)CC4)cc3)CC2)cc1 [Example 230] | 745 nM | > 10000 nM | 0.1 nM |
| COCCN1CCC(C(=O)NO)(S(=O)(=O)c2ccc(N3CCC(C(=O)c4ccc(CC(C)CO)cc4)CC3)cc2)CC1 (stereo not drawn) [Example 231] | 39.4 nM | > 10000 nM | 0.5 nM |
| CCN1CCC(C(=O)NO)(S(=O)(=O)c2ccc(N3CCC(C(=O)c4ccc(CC5CCC5)cc4)CC3)cc2)CC1 [Example 232] | 624 nM | > 10000 nM | 1.3 nM |
| CCC(C)Cc1ccc(C(=O)C2CCN(c3ccc(S(=O)(=O)C4(C(=O)NO)CCN(CC)CC4)cc3)CC2)cc1 (stereo not drawn) [Example 233] | 1050 nM | > 10000 nM | 1.2 nM |
| CCC(CC)Cc1ccc(C(=O)C2CCN(c3ccc(S(=O)(=O)C4(C(=O)NO)CCN(CC)CC4)cc3)CC2)cc1 [Example 234] | 2440 nM | > 10000 nM | 7.5 nM |
| CCN1CCC(C(=O)NO)(S(=O)(=O)c2ccc(N3CCC(C(=O)c4ccc(CC(C)CO)cc4)CC3)cc2)CC1 (stereo not drawn) [Example 235] | 118 nM | > 10000 nM | 0.8 nM |
| CCN1CCC(C(=O)NO)(S(=O)(=O)c2ccc(N3CCC(C(=O)c4ccc(CCCC(C)C)cc4)CC3)cc2)CC1 [Example 236] | 1850 nM | > 10000 nM | 1.5 nM |
| CCN1CCC(C(=O)NO)(S(=O)(=O)c2ccc(N3CCC(C(=O)c4ccc(CCC5CCCC5)cc4)CC3)cc2)CC1 [Example 237] | 1910 nM | > 10000 nM | 2.1 nM |
| COCCN1CCC(C(=O)NO)(S(=O)(=O)c2ccc(N3CCC(C(=O)c4ccc(COCC(C)C)s4)CC3)cc2)CC1 [Example 243] | 56 nM | > 10000 nM | 0.3 nM |
| COCCN1CCC(C(=O)NO)(S(=O)(=O)c2ccc(N3CCC(C(=O)c4ccc(CCC(C)C)cc4)CC3)cc2)CC1 [Example 246] | 2710 nM | > 10000 nM | 1 nM |

| Structure (SMILES) | IC50 [1] | IC50 [2] | IC50 [3] |
| --- | --- | --- | --- |
| CCN1CCC(C(=O)NO)(S(=O)(=O)c2ccc(N3CCC(C(=O)c4ccc(CCCC(C)O)cc4)CC3)cc2)CC1 (stereo not drawn) [Example 247] | 111 nM | > 10000 nM | 0.3 nM |
| CCN1CCC(C(=O)NO)(S(=O)(=O)c2ccc(N3CCC(C(=O)c4ccc(CCC(C)O)cc4)CC3)cc2)CC1 (stereo not drawn) [Example 248] | 141 nM | > 10000 nM | 0.6 nM |
| CCN1CCC(C(=O)NO)(S(=O)(=O)c2ccc(N3CCC(C(=O)c4ccc(CCC(C)C)c(F)c4)CC3)cc2)CC1 [Example 249] | > 10000 nM | > 10000 nM | 5.8 nM |
| COCCN1CCC(C(=O)NO)(S(=O)(=O)c2ccc(N3CCC(C(=O)c4ccc(CC(C)C)cn4)CC3)cc2)CC1 [Example 253] | 38.7 nM | > 10000 nM | 1.7 nM |
| CCN1CCC(C(=O)NO)(S(=O)(=O)c2ccc(N3CCC(C(=O)c4ccc(CC5CC5)cc4)CC3)cc2)CC1 [Example 254] | 132 nM | > 10000 nM | 1.3 nM |
| COc1ccc(C2CCN(c3ccc(S(=O)(=O)C4(C(=O)NO)CCN(C5CC5)CC4)cc3)CC2)cc1 [Example 260] | 1.2 nM | > 10000 nM | 0.4 nM |
| O=C(NO)C1(S(=O)(=O)c2ccc(N3CCC(c4ccc(F)cc4)CC3)cc2)CCN(CC2CC2)CC1 [Example 263] | 2.6 nM | > 10000 nM | 1.5 nM |
| COCCN1CCC(C(=O)NO)(S(=O)(=O)c2ccc(N3CCC(c4ccc(OC)cc4)CC3)cc2)CC1 [Example 267] | 1.7 nM | > 10000 nM | 0.4 nM |
| COc1ccc(C2CCN(c3ccc(S(=O)(=O)C4(C(=O)NO)CCN(CC5CC5)CC4)cc3)CC2)cc1 [Example 268] | 5 nM | > 10000 nM | 1.2 nM |
| O=C(NO)C1(S(=O)(=O)c2ccc(N3CCC(c4ccc(Cl)cc4)CC3)cc2)CCN(C2CC2)CC1 [Example 270] | 1.9 nM | > 10000 nM | 1.1 nM |
| COCCN1CCC(C(=O)NO)(S(=O)(=O)c2ccc(N3CCC(c4ccc(Cl)cc4)CC3)cc2)CC1 [Example 271] | 1.7 nM | > 10000 nM | 0.8 nM |
| Cc1ccc(C2CCN(c3ccc(S(=O)(=O)C4(C(=O)NO)CCN(C5CC5)CC4)cc3)CC2)cc1 [Example 272] | 5.9 nM | > 10000 nM | 1.3 nM |
| O=C(c1ccc(F)c(F)c1)C1CCN(c2ccc(S(=O)(=O)C3(C(=O)NO)CCOCC3)cc2)CC1 [Example 302] | 35 nM | > 10000 nM | 1.9 nM |
| COc1ccc(C(=O)C2CCN(c3ccc(S(=O)(=O)C4(C(=O)NO)CCOCC4)cc3)CC2)cc1C [Example 305] | 3300 nM | > 10000 nM | 6 nM |
| COCCc1sc(CC(=O)C2CCN(c3ccc(S(=O)(=O)C4(C(=O)NO)CCOCC4)cc3)CC2)nc1C [Example 374] | 970 nM | > 10000 nM | 5.6 nM |
| Cc1cc(C(=O)C2CCN(c3ccc(S(=O)(=O)C4(C(=O)NO)CCOCC4)cc3)CC2)ccc1OC(C)C [Example 376] | 2190 nM | > 10000 nM | 6.4 nM |
| CC(C)Cc1ccc(C(=O)C2CCN(c3ccc(S(=O)(=O)C4(C(=O)NO)CCOCC4)cc3)CC2)cc1 [Example 377] | 361 nM | > 10000 nM | 0.4 nM |
